Test results: paper doi:10.1101/841569v1 (biorxiv, 2019)

What was measured:
Mtb-MenD [1] = biological target: T1, Mtb-MenD (Mycobacterium tuberculosis, UniProt P9WK11)
Mtb-MenD [2] = biological target: T1, Mtb-MenD; experiment: biochemical
Mtb-MenD [3] = biological target: T1, Mtb-MenD; remark: listed apart in the source

T1 sequence (P9WK11 whole entry): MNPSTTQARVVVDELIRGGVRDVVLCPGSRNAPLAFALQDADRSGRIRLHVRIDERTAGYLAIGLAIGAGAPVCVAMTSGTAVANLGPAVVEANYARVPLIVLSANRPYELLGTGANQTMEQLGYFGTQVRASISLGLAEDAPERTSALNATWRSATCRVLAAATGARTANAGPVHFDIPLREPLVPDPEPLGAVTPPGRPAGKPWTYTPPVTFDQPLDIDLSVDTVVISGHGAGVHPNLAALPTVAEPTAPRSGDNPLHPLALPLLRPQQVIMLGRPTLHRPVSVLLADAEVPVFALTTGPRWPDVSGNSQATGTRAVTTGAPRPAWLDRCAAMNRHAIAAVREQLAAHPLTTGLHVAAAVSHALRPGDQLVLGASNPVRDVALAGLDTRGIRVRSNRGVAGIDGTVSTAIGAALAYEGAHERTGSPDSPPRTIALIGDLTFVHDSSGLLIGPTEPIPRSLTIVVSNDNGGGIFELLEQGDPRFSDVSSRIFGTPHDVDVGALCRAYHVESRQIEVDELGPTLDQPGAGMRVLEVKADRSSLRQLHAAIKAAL

SMILES	% of non-inhibited activity at 20 μM (Mtb-MenD [1]) [%]	IC50 (Mtb-MenD [2]) [nM]	X-ray crystal structure (co-crystallised, 1 mM ThDP) (Mtb-MenD [3])
O=C(O)c1cc(O)c2ccccc2c1O [DHNA]	24 ± 1	53	–
Cc1ncc(C[n+]2csc(CCOP(=O)(O)OP(=O)(O)O)c2C)c(N)n1 [ThDP]	–	–	acofactor (ThDP) bound DHNA complex
